Measurements: patent US20210371451A1, “CYCLIC-DI-AMP SODIUM SALT CRYSTAL” (Yamasa Corporation, priority 2018, published 2021)
Like-named read-outs stand apart in the source and are kept apart here.

Columns and labels:
[1] = assay type: physicochemical; settings: for purity of crystal by HPLC: 105° C.
Description: The purity of the c-di-AMP sodium salt in the crystal α obtained in Example 1 was analyzed by high performance liquid chromatography. As a result, the purity of c-di-AMP was 100%. Note that the high performance liquid chromatography was performed under the following conditions.
Column: Hydrosphere C18 (manufactured by YMC, Inc.)
Eluent: 0.1 M TEA-P (pH 6.0)+4.5% ACN
Detection method: detection at UV260 nm
The crystals obtained in the above Example 1, Example 2, Example 4, and Reference Example were allowed to stand under conditions at 105° C. Some crystals were sampled over time, and an aqueous solution was prepared therefrom. Then, the purity of each crystal was analyzed by high performance liquid chromatography. FIG. 18 and Table 6 show the results obtained.

[2] = pH 5
Description: The purified c-di-AMP was used to prepare a c-di-AMP aqueous solution with an OD257 of 2500 and at a pH of 5.0, 5.2, 5.4, 5.6, 5.8, 6.0, or 6.5. Each resulting c-di-AMP solution (0.2 mL) with an OD257 of 2500 was heated to 30° C. Next, 1 mL of 99.5% (w/w) ethanol was gently added. The mixture was then tightly sealed and allowed to stand overnight or for several days at 30° C. to precipitate crystals. The resulting crystals so precipitated were filtered through a membrane filter to yield wet crystals.
Dilution allowed for preparation of a c-di-AMP aqueous solution at a low concentration.

Molecule	stability under severe conditions [1]	purity of crystal by HPLC ([1]; Day 0)	purity of crystal by HPLC ([1]; Day 1)	purity of crystal by HPLC ([1]; Day 2)	purity of crystal by HPLC ([1]; Day 3)	purity of crystal by HPLC ([1]; Day 4)	purity of crystal by HPLC ([1]; Day 5)	solubility [2]	purity of crystal by HPLC ([1]; Day 1, sodium salt)	purity of crystal by HPLC ([1]; Day 2, sodium salt)	purity of crystal by HPLC ([1]; Day 3, sodium salt)	purity of crystal by HPLC ([1]; Day 4, sodium salt)	purity of crystal by HPLC ([1]; Day 5, sodium salt)
Nc1ncnc2c1ncn2[C@@H]1O[C@@H]2COP(=O)(O)O[C@H]3[C@@H](O)[C@H](n4cnc5c(N)ncnc54)O[C@@H]3COP(=O)(O)O[C@H]2[C@H]1O [Reference Example, c-di-AMP free acid, reference compound]	decreased stability	100.00%	91.81%	88.82%	86.46%	86.31%	85.42%	–	–	–	–	–	–
Nc1ncnc2c1ncn2[C@@H]1O[C@@H]2COP(=O)(O)O[C@H]3[C@@H](O)[C@H](n4cnc5c(N)ncnc54)O[C@@H]3COP(=O)(O)O[C@H]2[C@H]1O [c-di-AMP, Cyclic-di-AMP]	–	–	–	–	–	–	–	low	–	–	–	–	–
c-di-AMP sodium salt [Example 1]	–	100.00%	–	–	–	–	–	–	98.75%	97.98%	97.98%	97.87%	97.15%
c-di-AMP sodium salt [Example 2]	–	100.00%	–	–	–	–	–	–	99.02%	98.73%	98.63%	99.02%	98.09%
c-di-AMP sodium salt [Example 4]	–	100.00%	–	–	–	–	–	–	99.65%	99.35%	99.14%	99.09%	98.93%
